{
  "source": "patent US20040037904A1",
  "about": "“Antibacterial composition comprising as an active ingredient saponificated vegetable oil” (priority 2000, published 2004)",
  "key": {"[1]": {"tested_on": "M. domestica spiracle opening bristles", "experiment": "Effects on flies studied in scanning electron microscope", "format": "in vivo, Musca domestica", "details": "adult flies; Bionim 0.4%, potassium oleate 5%, Blidol 0.02%; SEM", "text": "A scanning electron microscope (SEM) was used to microscope adult flies treated with:\nwhereby morphological changes could be detected. These flies were photographed and compared with normal flies.\nMorphological changes could be detected on the spiracle opening on the middle part of the body. Bristles (see FIG. 12) surround this breathing hole. […] Apparently these last mentioned effects are present when using the other compositions."}, "[2]": {"tested_on": "fleas", "experiment": "Flea control on dogs", "format": "in vivo", "experimental": "15 dogs infested with fleas were treated with oleate. The oleate was sprayed from pump bottles. At the first treatment the dogs were sprayed with oleate in the groins, armpits and head/neck. At the second treatment, twenty-four hours later, the dogs were sprayed only in the armpits and behind the ears."}, "[3]": {"tested_on": "Musca domestica (larvae)", "experiment": "Larvae in culture medium with the composition, surviving larvae counted", "format": "in vivo", "details": "six days old larvae, 24° C., observed up to 36 hours", "experimental": "(§1) As RB 86™ needs an emulsifier for dissolving this emulsifier was also tested. All tests were reiterated, making a total of five times for each. Throughout the study, houseflies (Musca domestica) of a laboratory strain (772a) obtained from Statens Skadedyrslaboratorium, Lyngby, Denmark, was used. Standard medium for culturing larvae consisted of baker's yeast, mill: powder, water and wheat bran.\nSix days old larvae were placed in 1.5 litre plastic vessels (Cerbo™) containing 40 g culture medium and the respective composition a)-f). The vessels were placed in a climate room (24° C., RH %=75%±10%). Observations were performed whereby the number surviving larvae were registrated after 2, 5, 12, 24 and 36 hours."}, "[4]": {"tested_on": "Musca domestica (adult)", "experiment": "Adult flies in spray-treated Petri dishes, surviving flies counted", "format": "in vivo", "details": "10 adult flies per pre-treated dish; RB 86 6%, Bionim 0.4%, potassium oleate 5% concentration", "experimental": "as §1\nTest vessels were Petri dishes made of glass with a diameter of 9 cm. With the help of a spraying bottle the bottoms of the vessels were treated with each of the compositions a)-f). After transferring 10 adult flies to each of the pre-treated dishes, the dishes were covered with plastic film and the registration started. Observations were performed by counting the surviving flies at the start, after 5 minutes and subsequently every 10th minute up to a total of 60 minutes. Two further observations were made after 1.5 and 2 hours from the start, respectively."}},
  "note": "“Also recorded” adds a separate entry of the source.",
  "data": [
    {"smiles": "CCCCCCCC/C=C\\CCCCCCCC(=O)[O-].[K+]", "note": "[Potassium oleate]", "values": [
      {"measurement": "deformation of bristles around the spiracle opening", "setting": "[1]", "result": "The bristles are minimally affected; also recorded: only showed minimal changes"},
      {"measurement": "fleas found on dogs", "setting": "[2]; after the first spray treatment, 15 infested dogs", "result": "only one or two fleas were found on some dogs"},
      {"measurement": "living fleas found", "setting": "[2]; forty-eight hours later, after the second treatment", "result": "no living flea was found"},
      {"measurement": "living fleas found at another check", "setting": "[2]; four days later", "result": "the result was the same"},
      {"measurement": "controlling effect on larvae", "setting": "[3]", "result": "An effect could however be detected"},
      {"measurement": "time within which all flies were killed", "setting": "[4]", "result": "≤ 5", "unit": "min"}
    ]}
  ]
}
